From doi:10.1101/2023.10.20.563248v1 (biorxiv, 2023)

How the values were obtained:
Details in all cases: 1 µM; inhibitor
[1] = biological target: NEK7 (Homo sapiens, UniProt Q8TDX7)
[2] = biological target: STK23 (Homo sapiens, UniProt Q9UPE1)
[3] = biological target: TAOK3 (Homo sapiens, UniProt Q9H2K8)
[4] = biological target: CDK13 (Homo sapiens, UniProt Q14004)
[5] = biological target: PASK (Homo sapiens, UniProt Q96RG2)
[6] = biological target: CK1e (Homo sapiens, UniProt P49674)
[7] = biological target: CK1g1 (Homo sapiens, UniProt Q9HCP0)
[8] = biological target: CDK5 (Homo sapiens, UniProt Q00535)
[9] = biological target: GSK3B (Homo sapiens, UniProt P49841)
[10] = biological target: CDK16 (Homo sapiens, UniProt Q00536)
[11] = biological target: MUSK (Homo sapiens, UniProt O15146)
[12] = biological target: HIPK3 (Homo sapiens, UniProt Q9H422)
[13] = biological target: PRKX (Homo sapiens, UniProt P51817)
[14] = biological target: PKCmu (Homo sapiens, UniProt Q15139)
[15] = biological target: CDK9/CycT1 (Homo sapiens, UniProt P50750)
[16] = biological target: AKT2 (Homo sapiens, UniProt P31751)
[17] = biological target: HIPK1 (Homo sapiens, UniProt Q86Z02)
[18] = biological target: WNK3 (Homo sapiens, UniProt Q9BYP7)
[19] = biological target: MEKK3 (Homo sapiens, UniProt Q99759)
[20] = biological target: TRKC (Homo sapiens, UniProt Q16288)
[21] = biological target: PDK1 (Homo sapiens, UniProt O15530)
[22] = biological target: ITK (Homo sapiens, UniProt Q08881)
[23] = biological target: TTBK2 (Homo sapiens, UniProt Q6IQ55)
[24] = biological target: BMPR1A (Homo sapiens, UniProt P36894)
[25] = biological target: FLT3 (Homo sapiens, UniProt P36888)
[26] = biological target: CAMK2D (Homo sapiens, UniProt Q13557)
[27] = biological target: RPS6KA6 (Homo sapiens, UniProt Q9UK32)
[28] = biological target: MTOR (Homo sapiens, UniProt P42345)
[29] = biological target: NIK (Homo sapiens, UniProt Q99558)
[30] = biological target: HCK (Homo sapiens, UniProt P08631)
[31] = biological target: CLK3 (Homo sapiens, UniProt P49761)

Chain of PRKX (P51817 whole entry): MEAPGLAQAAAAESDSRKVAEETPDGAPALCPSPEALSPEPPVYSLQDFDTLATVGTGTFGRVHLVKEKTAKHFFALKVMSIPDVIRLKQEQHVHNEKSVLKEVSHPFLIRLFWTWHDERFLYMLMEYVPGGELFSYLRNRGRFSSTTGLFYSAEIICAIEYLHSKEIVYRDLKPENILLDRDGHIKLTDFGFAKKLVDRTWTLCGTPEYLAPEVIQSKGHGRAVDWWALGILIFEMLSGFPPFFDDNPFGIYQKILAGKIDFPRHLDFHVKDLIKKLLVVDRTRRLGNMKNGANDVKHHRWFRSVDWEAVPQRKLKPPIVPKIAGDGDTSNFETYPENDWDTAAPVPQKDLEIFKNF
Chain of PASK (Q96RG2 whole entry): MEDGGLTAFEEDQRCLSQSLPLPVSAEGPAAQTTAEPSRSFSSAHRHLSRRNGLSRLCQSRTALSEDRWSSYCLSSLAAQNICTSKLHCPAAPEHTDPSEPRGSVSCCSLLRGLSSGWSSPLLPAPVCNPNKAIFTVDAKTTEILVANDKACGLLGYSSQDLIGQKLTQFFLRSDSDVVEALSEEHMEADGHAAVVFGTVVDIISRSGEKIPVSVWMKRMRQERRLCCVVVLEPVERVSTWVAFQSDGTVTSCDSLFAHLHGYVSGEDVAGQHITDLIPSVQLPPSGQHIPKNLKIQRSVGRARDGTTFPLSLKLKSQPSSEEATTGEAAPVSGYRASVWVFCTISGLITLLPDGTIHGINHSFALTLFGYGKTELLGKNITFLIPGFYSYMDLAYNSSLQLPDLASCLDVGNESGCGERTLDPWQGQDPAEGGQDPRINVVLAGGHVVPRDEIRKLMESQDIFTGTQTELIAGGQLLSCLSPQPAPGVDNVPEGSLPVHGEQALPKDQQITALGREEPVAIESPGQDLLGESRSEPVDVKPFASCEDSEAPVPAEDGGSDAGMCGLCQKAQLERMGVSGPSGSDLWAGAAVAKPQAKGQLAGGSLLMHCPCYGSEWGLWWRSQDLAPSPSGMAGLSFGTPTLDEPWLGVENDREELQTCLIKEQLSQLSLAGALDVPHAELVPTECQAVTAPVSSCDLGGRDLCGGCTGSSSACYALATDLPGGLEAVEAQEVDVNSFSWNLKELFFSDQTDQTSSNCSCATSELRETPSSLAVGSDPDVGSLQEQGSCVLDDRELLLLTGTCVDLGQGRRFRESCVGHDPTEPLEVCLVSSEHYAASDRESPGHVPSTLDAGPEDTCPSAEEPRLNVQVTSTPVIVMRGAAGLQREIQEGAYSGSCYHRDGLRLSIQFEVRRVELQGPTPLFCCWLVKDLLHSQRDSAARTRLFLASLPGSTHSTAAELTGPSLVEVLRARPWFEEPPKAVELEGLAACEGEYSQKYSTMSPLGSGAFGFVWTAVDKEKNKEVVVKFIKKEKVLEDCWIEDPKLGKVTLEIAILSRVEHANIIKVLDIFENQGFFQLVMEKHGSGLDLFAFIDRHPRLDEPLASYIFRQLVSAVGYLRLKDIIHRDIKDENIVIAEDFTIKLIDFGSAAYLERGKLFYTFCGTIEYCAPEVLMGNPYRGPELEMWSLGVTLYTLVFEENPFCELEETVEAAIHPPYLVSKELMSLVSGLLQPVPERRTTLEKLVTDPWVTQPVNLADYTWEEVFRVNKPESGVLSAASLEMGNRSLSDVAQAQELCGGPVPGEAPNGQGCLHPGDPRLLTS
Chain of HIPK1 (Q86Z02 whole entry): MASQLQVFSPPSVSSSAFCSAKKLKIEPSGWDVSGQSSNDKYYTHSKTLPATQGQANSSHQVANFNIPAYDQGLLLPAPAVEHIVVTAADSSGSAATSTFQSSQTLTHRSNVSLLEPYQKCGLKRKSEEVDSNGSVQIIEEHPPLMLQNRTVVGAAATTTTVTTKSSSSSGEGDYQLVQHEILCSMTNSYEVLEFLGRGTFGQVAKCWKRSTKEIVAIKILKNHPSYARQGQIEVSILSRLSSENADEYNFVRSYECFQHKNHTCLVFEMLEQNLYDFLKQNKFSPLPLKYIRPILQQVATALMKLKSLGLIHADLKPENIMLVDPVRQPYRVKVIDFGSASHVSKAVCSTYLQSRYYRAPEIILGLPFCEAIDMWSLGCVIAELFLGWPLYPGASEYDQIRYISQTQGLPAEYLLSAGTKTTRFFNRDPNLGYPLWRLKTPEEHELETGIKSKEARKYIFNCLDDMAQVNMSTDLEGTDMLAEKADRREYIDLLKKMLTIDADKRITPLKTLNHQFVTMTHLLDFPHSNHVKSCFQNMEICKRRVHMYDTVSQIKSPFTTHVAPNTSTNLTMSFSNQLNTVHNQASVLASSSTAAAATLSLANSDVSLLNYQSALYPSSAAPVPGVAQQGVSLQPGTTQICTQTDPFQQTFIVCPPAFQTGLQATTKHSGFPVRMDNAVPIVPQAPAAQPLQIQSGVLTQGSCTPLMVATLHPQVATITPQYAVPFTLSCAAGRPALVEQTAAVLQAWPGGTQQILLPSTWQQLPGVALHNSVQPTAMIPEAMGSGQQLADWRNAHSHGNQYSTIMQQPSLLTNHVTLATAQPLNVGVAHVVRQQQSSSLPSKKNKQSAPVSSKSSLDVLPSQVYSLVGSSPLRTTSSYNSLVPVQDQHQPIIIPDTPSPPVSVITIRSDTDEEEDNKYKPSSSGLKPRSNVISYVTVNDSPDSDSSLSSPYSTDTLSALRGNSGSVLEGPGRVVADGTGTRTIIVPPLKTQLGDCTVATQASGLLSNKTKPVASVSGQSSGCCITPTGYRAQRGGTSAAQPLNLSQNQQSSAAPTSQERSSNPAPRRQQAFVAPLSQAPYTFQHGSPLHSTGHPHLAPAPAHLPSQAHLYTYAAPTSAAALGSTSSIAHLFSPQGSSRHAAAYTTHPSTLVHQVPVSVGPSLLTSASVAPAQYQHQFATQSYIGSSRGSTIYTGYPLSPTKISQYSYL
Chain of WNK3 (Q9BYP7 whole entry): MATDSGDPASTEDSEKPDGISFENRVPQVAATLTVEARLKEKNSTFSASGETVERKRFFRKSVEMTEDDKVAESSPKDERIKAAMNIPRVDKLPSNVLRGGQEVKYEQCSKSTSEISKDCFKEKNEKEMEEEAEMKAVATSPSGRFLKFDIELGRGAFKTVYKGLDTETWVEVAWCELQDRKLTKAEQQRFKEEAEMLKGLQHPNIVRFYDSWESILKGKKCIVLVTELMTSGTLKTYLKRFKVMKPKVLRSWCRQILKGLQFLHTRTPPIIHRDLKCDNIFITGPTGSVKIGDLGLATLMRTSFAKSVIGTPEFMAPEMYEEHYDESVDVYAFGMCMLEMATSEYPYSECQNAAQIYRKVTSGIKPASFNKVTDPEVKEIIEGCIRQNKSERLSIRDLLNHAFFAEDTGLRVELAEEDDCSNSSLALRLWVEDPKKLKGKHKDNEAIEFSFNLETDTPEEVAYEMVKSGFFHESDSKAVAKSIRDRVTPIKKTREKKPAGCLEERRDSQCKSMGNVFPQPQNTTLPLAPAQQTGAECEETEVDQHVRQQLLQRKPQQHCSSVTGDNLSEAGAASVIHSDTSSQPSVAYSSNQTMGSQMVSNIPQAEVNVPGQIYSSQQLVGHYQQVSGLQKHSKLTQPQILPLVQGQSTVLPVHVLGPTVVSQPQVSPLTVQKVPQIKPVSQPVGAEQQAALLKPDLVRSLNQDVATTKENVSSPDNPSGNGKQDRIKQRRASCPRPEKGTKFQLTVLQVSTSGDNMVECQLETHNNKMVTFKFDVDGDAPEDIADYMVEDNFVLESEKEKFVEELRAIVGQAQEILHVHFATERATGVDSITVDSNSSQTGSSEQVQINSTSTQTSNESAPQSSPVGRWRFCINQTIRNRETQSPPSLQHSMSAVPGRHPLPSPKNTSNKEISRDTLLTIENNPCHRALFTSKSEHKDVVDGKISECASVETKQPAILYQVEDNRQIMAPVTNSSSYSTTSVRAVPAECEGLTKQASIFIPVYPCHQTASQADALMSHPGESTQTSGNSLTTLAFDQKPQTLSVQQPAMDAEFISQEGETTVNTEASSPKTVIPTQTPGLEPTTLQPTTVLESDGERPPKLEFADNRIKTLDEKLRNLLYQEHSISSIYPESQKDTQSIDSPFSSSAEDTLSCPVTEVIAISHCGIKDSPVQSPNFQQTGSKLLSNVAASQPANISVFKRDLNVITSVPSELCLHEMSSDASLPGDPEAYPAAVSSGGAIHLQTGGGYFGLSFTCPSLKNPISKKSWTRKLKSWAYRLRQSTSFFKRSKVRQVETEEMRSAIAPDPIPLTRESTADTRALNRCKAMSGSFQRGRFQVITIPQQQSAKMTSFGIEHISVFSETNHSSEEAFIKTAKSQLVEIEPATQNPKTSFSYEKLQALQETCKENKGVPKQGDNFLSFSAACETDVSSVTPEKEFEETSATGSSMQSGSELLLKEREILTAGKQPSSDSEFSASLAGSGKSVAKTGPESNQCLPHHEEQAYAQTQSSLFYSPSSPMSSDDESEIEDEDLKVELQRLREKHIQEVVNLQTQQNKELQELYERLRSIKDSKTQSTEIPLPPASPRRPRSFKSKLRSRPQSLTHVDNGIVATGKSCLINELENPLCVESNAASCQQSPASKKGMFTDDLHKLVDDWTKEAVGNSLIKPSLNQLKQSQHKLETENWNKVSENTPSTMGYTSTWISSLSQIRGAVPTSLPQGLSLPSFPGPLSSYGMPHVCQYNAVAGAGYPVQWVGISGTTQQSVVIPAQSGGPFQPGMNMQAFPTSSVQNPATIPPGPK
Chain of CK1g1 (Q9HCP0 whole entry): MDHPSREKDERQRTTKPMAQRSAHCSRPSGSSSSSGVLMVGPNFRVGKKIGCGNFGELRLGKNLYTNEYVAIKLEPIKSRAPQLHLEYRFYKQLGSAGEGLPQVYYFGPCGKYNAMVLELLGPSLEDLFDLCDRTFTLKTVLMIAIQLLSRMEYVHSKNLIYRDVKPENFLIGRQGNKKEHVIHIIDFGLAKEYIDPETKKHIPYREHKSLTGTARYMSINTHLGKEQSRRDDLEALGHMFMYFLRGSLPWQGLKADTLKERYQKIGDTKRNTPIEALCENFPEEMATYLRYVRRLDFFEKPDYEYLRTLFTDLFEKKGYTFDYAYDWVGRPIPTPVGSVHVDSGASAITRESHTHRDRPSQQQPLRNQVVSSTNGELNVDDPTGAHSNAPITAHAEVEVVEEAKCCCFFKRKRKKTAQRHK

SMILES: O=C1NCCCCCNc2nc(c3ccccc3n2)Nc2cc1[nH]n2 [21c, (Z)-3^1H-2,5,11-triaza-1(4,2)-quinazolina-3(3,5)-pyrazolacycloundecaphan-4-one]
- 21c Remaining activity, percent of control [%] [1]: 98.8%
- 21c Remaining activity, percent of control [%] [2]: 80.7%
- 21c Remaining activity, percent of control [%] [3]: 102.4%
- 21c Remaining activity, percent of control [%] [4]: 101.2%
- 21c Remaining activity, percent of control [%] [5]: 100.8%
- 21c Remaining activity, percent of control [%] [6]: 103.1%
- 21c Remaining activity, percent of control [%] [7]: 102.2%
- 21c Remaining activity, percent of control [%] [8]: 101.3%
- 21c Remaining activity, percent of control [%] [9]: 81.4%
- 21c Remaining activity, percent of control [%] [10]: 94.1%
- 21c Remaining activity, percent of control [%] [11]: 83.0%
- 21c Remaining activity, percent of control [%] [12]: 90.8%
- 21c Remaining activity, percent of control [%] [13]: 93.9%
- 21c Remaining activity, percent of control [%] [14]: 96.1%
- 21c Remaining activity, percent of control [%] [15]: 85.7%
- 21c Remaining activity, percent of control [%] [16]: 90.3%
- 21c Remaining activity, percent of control [%] [17]: 97.2%
- 21c Remaining activity, percent of control [%] [18]: 98.5%
- 21c Remaining activity, percent of control [%] [19]: 105.8%
- 21c Remaining activity, percent of control [%] [20]: 102.0%
- 21c Remaining activity, percent of control [%] [21]: 99.5%
- 21c Remaining activity, percent of control [%] [22]: 99.7%
- 21c Remaining activity, percent of control [%] [23]: 109.9%
- 21c Remaining activity, percent of control [%] [24]: 108.3%
- 21c Remaining activity, percent of control [%] [25]: 103.4%
- 21c Remaining activity, percent of control [%] [26]: 95.0%
- 21c Remaining activity, percent of control [%] [27]: 73.5%
- 21c Remaining activity, percent of control [%] [28]: 99.2%
- 21c Remaining activity, percent of control [%] [29]: 68.5%
- 21c Remaining activity, percent of control [%] [30]: 94.0%
- 21c Remaining activity, percent of control [%] [31]: 88.6%
